Measured values taken from ChEMBL document CHEMBL1145967, “Design, synthesis, and biological activities of classical N-[4-[2-(2-amino-4-ethylpyrrolo[2,3-d]pyrimidin-5-yl)ethyl]benzoyl]-l-glutamic acid and its 6-methyl derivative as potential dual inhibitors of thymidylate synthase and dihydrofolate reductase and as potential antitumor agents” (J Med Chem, 2003).

B1: Folylpolyglutamate synthase, mitochondrial (Homo sapiens), Q05932 (protein)
chain: MSRARSHLRAALFLAAASARGITTQVAARRGLSAWPVPQEPSMEYQDAVRMLNTLQTNAGYLEQVKRQRGDPQTQLEAMELYLARSGLQVEDLDRLNIIHVTGTKGKGSTCAFTECILRSYGLKTGFFSSPHLVQVRERIRINGQPISPELFTKYFWRLYHRLEETKDGSCVSMPPYFRFLTLMAFHVFLQEKVDLAVVEVGIGGAYDCTNIIRKPVVCGVSSLGIDHTSLLGDTVEKIAWQKGGIFKQGVPAFTVLQPEGPLAVLRDRAQQISCPLYLCPMLEALEEGGPPLTLGLEGEHQRSNAALALQLAHCWLQRQDRHGAGEPKASRPGLLWQLPLAPVFQPTSHMRLGLRNTEWPGRTQVLRRGPLTWYLDGAHTASSAQACVRWFRQALQGRERPSGGPEVRVLLFNATGDRDPAALLKLLQPCQFDYAVFCPNLTEVSSTGNADQQNFTVTLDQVLLRCLEHQQHWNHLDEEQASPDLWSAPSPEPGGSASLLLAPHPPHTCSASSLVFSCISHALQWISQGRDPIFQPPSPPKGLLTHPVAHSGASILREAAAIHVLVTGSLHLVGGVLKLLEPALSQ

Experiments:
SW-620 = assay: Cytotoxicity evaluation against SW-620 colon cancer cells; assay type: functional; settings: Homo sapiens
HCT-15 = assay: Cytotoxicity evaluation against HCT-15 colon cancer cells; assay type: functional; settings: Homo sapiens
SN12C = assay: Cytotoxicity evaluation against SN12C renal cancer cells; assay type: functional; settings: Homo sapiens
UACC-62 = assay: Cytotoxicity evaluation against UACC-62 melanoma cells; assay type: functional; settings: Homo sapiens
MDA-N = assay: Cytotoxicity evaluation against […] breast cancer cells; assay type: functional; settings: Homo sapiens
CCRF-CEM = assay: Growth inhibition of CCRF-CEM Human Leukemia Cell was determined; assay type: functional, cell-based
R30dm-CCRF-CEM = assay: Growth inhibition of MTX-resistant subline R30dm-CCRF-CEM Human Leukemia Cell was determined; assay type: functional, cell-based
HT-29 = assay: Cytotoxicity evaluation against HT-29 colon cancer cells; assay type: functional; settings: Homo sapiens
K562 = assay: Cytotoxicity evaluation against K-562 Leukemia cells; assay type: functional; settings: Homo sapiens
R2-CCRF-CEM = assay: Growth inhibition of MTX-resistant subline R2-CCRF-CEM Human Leukemia Cell was determined; assay type: functional, cell-based
OVCAR-4 = assay: Cytotoxicity evaluation against OVCAR-4 cells; assay type: functional; settings: Homo sapiens
ACHN = assay: Cytotoxicity evaluation against ACHN renal cancer cells; assay type: functional; settings: Homo sapiens
LOX IMVI = assay: Cytotoxicity evaluation against LOX IMVI melanoma cells; assay type: functional; settings: Homo sapiens
NCI-H226 = assay: Cytotoxicity evaluation against NCI-H226 non-small-cell lung cancer cells; assay type: functional; settings: Homo sapiens
UACC-257 = assay: Cytotoxicity evaluation against UACC-257 melanoma cells; assay type: functional; settings: Homo sapiens
A549 = assay: Cytotoxicity evaluation against A549/ATCC non-small-cell lung cancer cells; assay type: functional; settings: Homo sapiens
R1-CCRF-CEM = assay: Growth inhibition of MTX-resistant subline R1-CCRF-CEM Human Leukemia Cell was determined; assay type: functional, cell-based
SF-539 = assay: Cytotoxicity evaluation against SF-539 CNS cancer cells; assay type: functional; settings: Homo sapiens
MCF7 = assay: Cytotoxicity evaluation against MCF-7 breast cancer cells; assay type: functional; settings: Homo sapiens
MOLT-4 = assay: Cytotoxicity evaluation against MOLT-4 Leukemia cells; assay type: functional; settings: Homo sapiens
MDA-MB-435 = assay: Cytotoxicity evaluation against MDA-MB-435 breast cancer cells; assay type: functional; settings: Homo sapiens
Thymidylate synthase [1] = molecular target: Thymidylate synthase (Escherichia coli, UniProt C3SWJ7); assay: Compound was evaluated as inhibitor of Escherichia coli thymidylate synthase
NCI-H460 = assay: Cytotoxicity evaluation against NCI-H460 non-small-cell lung cancer cells; assay type: functional; settings: Homo sapiens
HL-60 = assay: Cytotoxicity evaluation against HL-60 Leukemia cells; assay type: functional; settings: Homo sapiens
Thymidylate synthase [2] = molecular target: Thymidylate synthase (Homo sapiens, UniProt P04818); assay: Compound was evaluated as inhibitor of human thymidylate synthase
Thymidylate synthase [3] = molecular target: Thymidylate synthase (Lactobacillus casei, UniProt P00469); assay: Compound was evaluated as inhibitor of Lactobacillus casei thymidylate synthase; set-up: species or system Lacticaseibacillus casei
[4] = molecular target: Dihydrofolate reductase (Homo sapiens) (UniProt P00374); assay: Compound was evaluated as inhibitor of human Dihydrofolate reductase; settings: concentration not given here
Dihydrofolate reductase = Dihydrofolate reductase (Homo sapiens, UniProt P00374)
[5] = substrate: Nc1nc(N)c2nc(CNc3ccc(C(=O)N[C@@H](CCC(=O)O)C(=O)O)cc3)cnc2n1; assay: (§1) Activity of compound calculated as maximum activity of substrate for human Folyl-polyglutamate synthase relative to the maximum activity for aminopterin
[6] = substrate: CCc1[nH]c(N)nc2ncc(CCc3ccc(C(=O)N[C@@H](CCC(=O)O)C(=O)O)cc3)c1-2; assay: as §1
[7] = substrate: Cc1nc(N)nc2[nH]cc(CCc3ccc(C(=O)N[C@@H](CCC(=O)O)C(=O)O)cc3)c12; assay: as §1
[8] = substrate: CCc1[nH]c(N)nc2nc(C)c(CCc3ccc(C(=O)N[C@@H](CCC(=O)O)C(=O)O)cc3)c1-2; assay: as §1
[9] = substrate: CCc1[nH]c(N)nc2ncc(CCc3ccc(C(=O)N[C@@H](CCC(=O)O)C(=O)O)cc3)c1-2; assay: (§2) Activity of compound calculated as Km was tested as substrate for human Folyl-polyglutamate synthase
[10] = substrate: CCc1[nH]c(N)nc2nc(C)c(CCc3ccc(C(=O)N[C@@H](CCC(=O)O)C(=O)O)cc3)c1-2; assay: as §2

Sequence of Thymidylate synthase (Homo sapiens, UniProt P04818) (P04818 whole entry): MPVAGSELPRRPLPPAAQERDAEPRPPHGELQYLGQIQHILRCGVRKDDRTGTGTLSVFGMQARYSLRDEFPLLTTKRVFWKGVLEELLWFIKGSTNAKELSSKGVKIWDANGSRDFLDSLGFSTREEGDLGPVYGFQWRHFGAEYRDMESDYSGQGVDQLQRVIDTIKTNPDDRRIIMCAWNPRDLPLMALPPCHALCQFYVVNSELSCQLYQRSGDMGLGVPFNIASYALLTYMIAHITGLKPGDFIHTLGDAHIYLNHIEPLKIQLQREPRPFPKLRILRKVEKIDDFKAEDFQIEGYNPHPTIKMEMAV
Sequence of Thymidylate synthase (Escherichia coli, UniProt C3SWJ7) (C3SWJ7 whole entry): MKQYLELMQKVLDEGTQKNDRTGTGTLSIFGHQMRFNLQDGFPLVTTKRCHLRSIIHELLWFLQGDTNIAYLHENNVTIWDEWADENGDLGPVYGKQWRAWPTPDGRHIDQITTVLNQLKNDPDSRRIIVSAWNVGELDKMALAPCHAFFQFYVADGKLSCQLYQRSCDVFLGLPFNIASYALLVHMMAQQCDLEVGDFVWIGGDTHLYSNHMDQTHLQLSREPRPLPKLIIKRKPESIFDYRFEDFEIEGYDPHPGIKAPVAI
Sequence of Thymidylate synthase (Lactobacillus casei, UniProt P00469) (P00469 whole entry): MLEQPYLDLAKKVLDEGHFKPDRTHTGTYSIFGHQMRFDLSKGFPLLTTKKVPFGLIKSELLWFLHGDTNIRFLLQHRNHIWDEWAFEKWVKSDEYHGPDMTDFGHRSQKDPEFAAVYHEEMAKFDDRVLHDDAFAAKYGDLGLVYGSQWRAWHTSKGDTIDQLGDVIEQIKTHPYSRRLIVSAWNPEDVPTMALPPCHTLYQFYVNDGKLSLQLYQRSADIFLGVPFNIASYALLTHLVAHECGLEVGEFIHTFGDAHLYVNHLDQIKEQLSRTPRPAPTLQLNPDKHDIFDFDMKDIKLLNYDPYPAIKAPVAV
Sequence of Dihydrofolate reductase (P00374 whole entry): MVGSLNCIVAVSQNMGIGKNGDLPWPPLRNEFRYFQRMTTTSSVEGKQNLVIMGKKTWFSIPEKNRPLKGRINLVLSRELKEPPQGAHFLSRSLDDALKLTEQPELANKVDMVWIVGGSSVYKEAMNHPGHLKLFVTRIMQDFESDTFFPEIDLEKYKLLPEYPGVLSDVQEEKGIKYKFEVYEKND
Sequence of Dihydrofolate reductase (Homo sapiens) (P00374 whole entry): as above

Row | Molecule | GI50 (SW-620) [µM] | GI50 (HCT-15) [µM] | GI50 (SN12C) [µM] | GI50 (UACC-62) [µM] | GI50 (MDA-N) [µM] | EC50 (CCRF-CEM) [nM] | EC50 (R30dm-CCRF-CEM) [nM] | GI50 (HT-29) [µM] | GI50 (K562) [nM] | EC50 (R2-CCRF-CEM) [nM] | GI50 (OVCAR-4) [µM] | GI50 (ACHN) [nM] | GI50 (LOX IMVI) [µM] | GI50 (NCI-H226) [µM] | GI50 (UACC-257) [µM] | GI50 (A549) [µM] | EC50 (R1-CCRF-CEM) [nM] | GI50 (SF-539) [µM] | GI50 (MDA-MB-435) [µM] | GI50 (HL-60) [nM] | other results
1 | CCc1nc(N)nc2[nH]cc(CCc3ccc(C(=O)N[C@@H](CCC(=O)O)C(=O)O)cc3)c12 | < 0.01 | < 0.01 | < 0.01 | < 0.01 | < 0.01 | 15 | 18.5 | < 0.01 | < 10 | 750 | < 0.01 | 169 | < 0.01 | < 0.01 | < 0.01 | < 0.01 | 695 | < 0.01 | < 0.01 | < 10 | GI50 (MCF7): < 0.01 µM; GI50 (MOLT-4): > 100000 nM; IC50 (Thymidylate synthase [1]): 80 µM; GI50 (NCI-H460): < 0.01 µM; IC50 (Thymidylate synthase [2]): 80 µM
2 | CN(Cc1cnc2nc(N)nc(N)c2n1)c1ccc(C(=O)N[C@@H](CCC(=O)O)C(=O)O)cc1 [METHOTREXATE] | – | – | – | – | – | – | 12.8 | – | – | 2630 | – | – | – | – | – | – | 985 | – | – | – | –
3 | CCc1[nH]c(N)nc2nc(C)c(CCc3ccc(C(=O)N[C@@H](CCC(=O)O)C(=O)O)cc3)c1-2 | > 100 | > 100 | > 100 | > 100 | > 100 | > 10000 | > 20000 | > 100 | 143 | > 10000 | > 100 | > 100000 | 98.6 | > 100 | > 100 | > 100 | > 20000 | > 100 | > 100 | < 10 | IC50 (Thymidylate synthase [3]): > 100 µM; GI50 (MCF7): > 100 µM; GI50 (MOLT-4): 100 nM; GI50 (NCI-H460): > 100 µM; inhibition [4]: 14%; IC50 (Thymidylate synthase [2]): 9 µM
4 | Cc1nc(N)nc2[nH]cc(CCc3ccc(C(=O)N[C@@H](CCC(=O)O)C(=O)O)cc3)c12 | > 100 | > 100 | > 100 | > 100 | > 100 | – | 18.5 | > 100 | 14700 | 575 | > 100 | – | 11.5 | – | > 100 | – | 158 | – | > 100 | < 10 | IC50 (Dihydrofolate reductase): 1200 nM
5 | B1 | – | – | – | – | – | – | – | – | – | – | – | – | – | – | – | – | – | – | – | – | Vmax [5]: 1 µM; relative Vmax [6]: 0.23; relative Vmax [7]: 0.17; relative Vmax [8]: 0.1; Km [9]: < 2 µM; Km [10]: 96 µM
